Among the data in PubChem BioAssay (NCI) are TGI values, retold here.

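Growth conditions: 96-well plates. Treatment: test compound, 48 hours, 5 concentrations. Analysis: linear interpolation between bracketing concentrations; unreached endpoints set to highest concentration. Definition used: TGI = concentration required for complete inhibition of growth.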 Bounds are passed on as bounds.

Some test systems named below: 786-0 renal; RXF 393 renal; HCT-15 colon; A549 NSCLC; SW-620 colon; SK-MEL-5 melanoma; OVCAR-5 ovarian; IGROV1 ovarian; K-562 leukemia; OVCAR-3 ovarian; SK-OV-3 ovarian; HCT-116 colon; UO-31 renal; HL-60(TB) leukemia; SF-295 CNS; EKVX NSCLC; HOP-92 NSCLC; KM12 colon; OVCAR-8 ovarian; BT-549 breast.
Common to all, as to assay: DTP human tumour cell line panel, 48 h

With `CCOc1ccc(Nc2nc3c(s2)C(=O)c2ccccc2C3=O)cc1`, the TGI was 31.2 µM in the test with 786-0 renal; 27.6 µM in the test on RXF 393 renal; more than 100 µM in the test on HCT-15 colon; 44.3 µM in the test with A549 NSCLC; 15.2 µM in the test on SW-620 colon; 4.07 µM in the test with SK-MEL-5 melanoma. Moreover, the concentration for total growth inhibition (TGI) with OVCAR-5 ovarian is 40 µM; with IGROV1 ovarian, 26.7 µM; in the test on K-562 leukemia it was more than 100 µM; in the test on OVCAR-3 ovarian, 12.9 µM; in the test on SK-OV-3 ovarian, 34.3 µM; in the test on HCT-116 colon it was 33.2 µM. The TGI with UO-31 renal is 28.4 µM; in the test on HL-60(TB) leukemia, more than 100 µM; in the test on SF-295 CNS, 23.5 µM; with EKVX NSCLC it was 50.4 µM; in the test on HOP-92 NSCLC it was 27.6 µM; in the test with KM12 colon, 27.9 µM.

Consider `O=C1[C@@H]2C(c3ccc(Cl)cc3Cl)=NO[C@@H]2C(=O)N1c1ccc(Cc2ccc(N3C(=O)[C@H]4C(c5ccc(Cl)cc5Cl)=NO[C@H]4C3=O)cc2)cc1`, for which the total growth inhibition concentration (TGI) in the test with 786-0 renal is more than 100 µM; with RXF 393 renal it was 68.8 µM; in the test on HCT-15 colon, more than 100 µM; with A549 NSCLC, more than 100 µM; in the test on SW-620 colon, more than 100 µM; in the test on OVCAR-8 ovarian it was more than 100 µM. Besides, the TGI in the test with SK-MEL-5 melanoma, in the test with OVCAR-5 ovarian, in the test on IGROV1 ovarian, with K-562 leukemia, in the test on OVCAR-3 ovarian and in the test on SK-OV-3 ovarian was more than 100 µM each time. The total growth inhibition concentration (TGI) in the test on UO-31 renal was more than 100 µM; with HL-60(TB) leukemia, 48.8 µM; in the test on SF-295 CNS it was more than 100 µM; in the test on EKVX NSCLC, more than 100 µM; with HOP-92 NSCLC, 41.4 µM; in the test on KM12 colon, more than 100 µM.

In the case of `O=[N+]([O-])c1ccc2[nH]nc(OCc3ccccn3)c2c1`, the TGI in the test on 786-0 renal, in the test with RXF 393 renal, in the test on HCT-15 colon, in the test on A549 NSCLC, with SW-620 colon and with OVCAR-8 ovarian was more than 100 µM throughout. Further, the TGI with SK-MEL-5 melanoma, with OVCAR-5 ovarian, in the test on IGROV1 ovarian, with K-562 leukemia, with OVCAR-3 ovarian and in the test with SK-OV-3 ovarian was more than 100 µM each time. For the same compound, the TGI in the test on HCT-116 colon, in the test on UO-31 renal, with HL-60(TB) leukemia, in the test with SF-295 CNS, in the test on EKVX NSCLC and in the test with HOP-92 NSCLC was more than 100 µM in each case. In the test on KM12 colon, this compound came in with a TGI of more than 100 µM.

As to `Cc1ccc(N=NC2S/C(=C(\C#N)c3nc4ccccc4[nH]3)N(c3ccccc3)C2=O)cc1` (configuration not stated), the TGI in the test on 786-0 renal is 71.9 µM; in the test on RXF 393 renal, 81.5 µM; with HCT-15 colon, more than 100 µM; with A549 NSCLC, more than 100 µM; in the test with SW-620 colon it was more than 100 µM; with OVCAR-8 ovarian, more than 100 µM. In addition, the TGI in the test on SK-MEL-5 melanoma, in the test with OVCAR-5 ovarian, in the test on IGROV1 ovarian, in the test on K-562 leukemia, in the test with OVCAR-3 ovarian and with SK-OV-3 ovarian was more than 100 µM throughout. In addition, the concentration for total growth inhibition (TGI) with HCT-116 colon, with UO-31 renal, in the test on HL-60(TB) leukemia, in the test on SF-295 CNS, in the test on EKVX NSCLC and with HOP-92 NSCLC was more than 100 µM each time.

Regarding `N#Cc1n[nH]n(C2CCCCC2)c1=O`, the TGI in the test on 786-0 renal, in the test on RXF 393 renal, in the test on BT-549 breast, in the test on HCT-15 colon, in the test on A549 NSCLC and in the test with SW-620 colon was more than 100 µM in each case. Also, the concentration for total growth inhibition (TGI) in the test with OVCAR-8 ovarian, in the test on SK-MEL-5 melanoma, in the test on OVCAR-5 ovarian, in the test with IGROV1 ovarian, with OVCAR-3 ovarian and with SK-OV-3 ovarian was more than 100 µM throughout. Besides, the TGI with HCT-116 colon, in the test on UO-31 renal, with HL-60(TB) leukemia, in the test with SF-295 CNS, with EKVX NSCLC and in the test with KM12 colon was more than 100 µM in each case.

For the compound `CCOC(O)(NC(=O)C(C(F)(F)F)C(F)(F)F)C(F)(F)F` (configuration not stated), the total growth inhibition concentration (TGI) in the test on 786-0 renal, in the test with RXF 393 renal, in the test with BT-549 breast, in the test on HCT-15 colon, with A549 NSCLC and in the test with SW-620 colon was more than 100 µM throughout. Besides, the TGI with OVCAR-8 ovarian, in the test with SK-MEL-5 melanoma, with OVCAR-5 ovarian, in the test with IGROV1 ovarian, with K-562 leukemia and with HCT-116 colon was more than 100 µM in each case. Also, the TGI in the test on UO-31 renal, in the test with HL-60(TB) leukemia and in the test on EKVX NSCLC was more than 100 µM in each case.

Take `COCO[C@@H]1C[C@H]2C(=O)N(COC)c3ccccc3C(=O)N2C1`: the total growth inhibition concentration (TGI) with 786-0 renal, with RXF 393 renal, in the test on BT-549 breast, in the test with HCT-15 colon, with A549 NSCLC and in the test with SW-620 colon was more than 100 µM throughout. For the same compound, the TGI in the test on OVCAR-8 ovarian, with SK-MEL-5 melanoma, in the test on OVCAR-5 ovarian, in the test on IGROV1 ovarian, in the test with SK-OV-3 ovarian and in the test on HCT-116 colon was more than 100 µM each time. The TGI with UO-31 renal, in the test with HL-60(TB) leukemia, in the test with SF-295 CNS, in the test on EKVX NSCLC and in the test with KM12 colon was more than 100 µM in each case.

For the compound `C#CCNC(=O)NCCCC(NC(C)=O)C(=O)NCc1ccccc1` (configuration not stated), the TGI in the test on 786-0 renal, in the test with RXF 393 renal, with HCT-15 colon, with A549 NSCLC, in the test on SW-620 colon and in the test with OVCAR-8 ovarian was more than 100 µM each time. Moreover, the total growth inhibition concentration (TGI) with SK-MEL-5 melanoma, in the test on OVCAR-5 ovarian, in the test with IGROV1 ovarian, in the test on K-562 leukemia, with OVCAR-3 ovarian and with SK-OV-3 ovarian was more than 100 µM throughout. For the same compound, the total growth inhibition concentration (TGI) in the test with HCT-116 colon, with UO-31 renal, in the test with HL-60(TB) leukemia, in the test on SF-295 CNS, with EKVX NSCLC and in the test on HOP-92 NSCLC was more than 100 µM each time. In addition, in the test with KM12 colon, the TGI is more than 100 µM.
